Laboratory results as given in PMC5513037, “Examining the influence of specificity ligands and ATP-competitive ligands on the overall effectiveness of bivalent kinase inhibitors” (Proteome Science, 2017).
pIC50: −log10 of the molar value.

Columns and labels:
Assay in all cases: KAM-matrix competition in K562 lysate;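 for 0.001 uM KAM: median log10 fold change of treatment over DMSO control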;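 for 0.01 uM KAM: median log10 fold change of treatment over DMSO control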;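 for 0.1 uM KAM: median log10 fold change of treatment over DMSO control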;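 for 1 uM KAM: median log10 fold change of treatment over DMSO control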;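 for 10 uM KAM: median log10 fold change of treatment over DMSO control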
Format in all cases: binding
BUB1 = target: T1, BUB1 (Homo sapiens, UniProt O43683);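 for 0.001 uM KAM: median log10 fold change of treatment over DMSO control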;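 for 0.01 uM KAM: median log10 fold change of treatment over DMSO control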;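 for 0.1 uM KAM: median log10 fold change of treatment over DMSO control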;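 for 1 uM KAM: median log10 fold change of treatment over DMSO control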;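 for 10 uM KAM: median log10 fold change of treatment over DMSO control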
T1 construct: endogenous in cells; host or cells: K562
Procedure: (§1) Supplement 12953_2017_125_MOESM1_ESM.zip/MS_Supp Info.xlsx, sheet "KAM" | column: 10 uM KAM; 1 uM KAM; 0.1 uM KAM; 0.01 uM KAM; 0.001 uM KAM; RB50

IRAK4 = target: T2, IRAK4 (Homo sapiens, UniProt Q9NWZ3)
T2 construct: endogenous in cells; host or cells: K562
T2 sequence (Q9NWZ3 1-460): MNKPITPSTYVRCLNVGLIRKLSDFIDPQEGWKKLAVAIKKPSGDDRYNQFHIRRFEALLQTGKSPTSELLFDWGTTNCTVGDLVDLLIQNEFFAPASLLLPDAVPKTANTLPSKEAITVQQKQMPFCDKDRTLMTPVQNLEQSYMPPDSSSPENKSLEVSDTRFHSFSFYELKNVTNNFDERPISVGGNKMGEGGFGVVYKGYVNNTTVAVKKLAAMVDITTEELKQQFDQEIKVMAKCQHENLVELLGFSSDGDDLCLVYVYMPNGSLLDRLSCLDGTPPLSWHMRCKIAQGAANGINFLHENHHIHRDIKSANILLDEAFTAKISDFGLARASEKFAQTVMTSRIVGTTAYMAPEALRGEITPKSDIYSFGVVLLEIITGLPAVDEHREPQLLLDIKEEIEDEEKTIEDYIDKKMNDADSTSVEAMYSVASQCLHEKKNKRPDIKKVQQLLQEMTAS
Procedure: as §1

CDK7 = target: T3, CDK7 (Homo sapiens, UniProt P50613)
T3 construct: endogenous in cells; host or cells: K562
Procedure: as §1

TGFBR1 = target: T4, TGFBR1 (Homo sapiens, UniProt P36897)
T4 construct: endogenous in cells; host or cells: K562
T4 sequence (P36897 34-503): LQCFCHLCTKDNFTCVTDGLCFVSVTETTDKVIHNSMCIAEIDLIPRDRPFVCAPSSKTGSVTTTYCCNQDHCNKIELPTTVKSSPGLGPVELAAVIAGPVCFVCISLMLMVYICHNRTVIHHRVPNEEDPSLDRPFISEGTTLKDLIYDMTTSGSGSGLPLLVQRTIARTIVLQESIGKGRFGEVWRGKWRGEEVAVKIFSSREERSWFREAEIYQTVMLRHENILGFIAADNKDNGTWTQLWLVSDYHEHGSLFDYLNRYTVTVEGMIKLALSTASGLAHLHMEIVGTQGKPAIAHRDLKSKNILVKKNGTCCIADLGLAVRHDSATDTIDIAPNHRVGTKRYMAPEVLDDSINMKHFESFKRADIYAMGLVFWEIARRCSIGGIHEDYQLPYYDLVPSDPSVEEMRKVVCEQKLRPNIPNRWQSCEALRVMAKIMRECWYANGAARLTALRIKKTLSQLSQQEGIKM
Procedure: as §1

RIOK2 = target: T5, RIOK2 (Homo sapiens, UniProt Q9BVS4)
T5 construct: endogenous in cells; host or cells: K562
Procedure: as §1

ZAK = target: T6, ZAK (Homo sapiens, UniProt Q9NYL2)
T6 construct: endogenous in cells; host or cells: K562 cell lysate
Procedure: as §1

MINK1 = target: T7, MINK1 (Homo sapiens, UniProt Q8N4C8)
T7 construct: endogenous in cells; host or cells: K562
Procedure: as §1

BRD4 = target: T8, BRD4 (Homo sapiens, UniProt O60885);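 for 0.001 uM KAM: median log10 fold change of treatment over DMSO control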;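 for 0.01 uM KAM: median log10 fold change of treatment over DMSO control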;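 for 0.1 uM KAM: median log10 fold change of treatment over DMSO control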;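 for 1 uM KAM: median log10 fold change of treatment over DMSO control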;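 for 10 uM KAM: median log10 fold change of treatment over DMSO control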
T8 construct: endogenous in cells; host or cells: K562
Procedure: as §1

PRKCA = target: T9, PRKCA (Homo sapiens, UniProt P17252)
T9 construct: endogenous in cells; host or cells: K562 lysate
Procedure: as §1

AURKB = target: T10, AURKB (Homo sapiens, UniProt Q96GD4)
T10 construct: endogenous in cells; host or cells: K562
Procedure: as §1

ROCK2 = target: T11, ROCK2 (Homo sapiens, UniProt O75116);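 for 0.001 uM KAM: median log10 fold change of treatment over DMSO control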;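 for 0.01 uM KAM: median log10 fold change of treatment over DMSO control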;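 for 0.1 uM KAM: median log10 fold change of treatment over DMSO control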;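 for 1 uM KAM: median log10 fold change of treatment over DMSO control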;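 for 10 uM KAM: median log10 fold change of treatment over DMSO control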
T11 construct: endogenous in cells; host or cells: K562
Procedure: as §1

FGFR3 = target: T12, FGFR3 (Homo sapiens, UniProt P22607)
T12 construct: endogenous in cells; host or cells: K562
Procedure: as §1

[1] = KAM 0.001-10 uM, read-out: RB50 (the source's name)
[2] = read-out: RB50 (the source's name)

T1 sequence (O43683 whole entry): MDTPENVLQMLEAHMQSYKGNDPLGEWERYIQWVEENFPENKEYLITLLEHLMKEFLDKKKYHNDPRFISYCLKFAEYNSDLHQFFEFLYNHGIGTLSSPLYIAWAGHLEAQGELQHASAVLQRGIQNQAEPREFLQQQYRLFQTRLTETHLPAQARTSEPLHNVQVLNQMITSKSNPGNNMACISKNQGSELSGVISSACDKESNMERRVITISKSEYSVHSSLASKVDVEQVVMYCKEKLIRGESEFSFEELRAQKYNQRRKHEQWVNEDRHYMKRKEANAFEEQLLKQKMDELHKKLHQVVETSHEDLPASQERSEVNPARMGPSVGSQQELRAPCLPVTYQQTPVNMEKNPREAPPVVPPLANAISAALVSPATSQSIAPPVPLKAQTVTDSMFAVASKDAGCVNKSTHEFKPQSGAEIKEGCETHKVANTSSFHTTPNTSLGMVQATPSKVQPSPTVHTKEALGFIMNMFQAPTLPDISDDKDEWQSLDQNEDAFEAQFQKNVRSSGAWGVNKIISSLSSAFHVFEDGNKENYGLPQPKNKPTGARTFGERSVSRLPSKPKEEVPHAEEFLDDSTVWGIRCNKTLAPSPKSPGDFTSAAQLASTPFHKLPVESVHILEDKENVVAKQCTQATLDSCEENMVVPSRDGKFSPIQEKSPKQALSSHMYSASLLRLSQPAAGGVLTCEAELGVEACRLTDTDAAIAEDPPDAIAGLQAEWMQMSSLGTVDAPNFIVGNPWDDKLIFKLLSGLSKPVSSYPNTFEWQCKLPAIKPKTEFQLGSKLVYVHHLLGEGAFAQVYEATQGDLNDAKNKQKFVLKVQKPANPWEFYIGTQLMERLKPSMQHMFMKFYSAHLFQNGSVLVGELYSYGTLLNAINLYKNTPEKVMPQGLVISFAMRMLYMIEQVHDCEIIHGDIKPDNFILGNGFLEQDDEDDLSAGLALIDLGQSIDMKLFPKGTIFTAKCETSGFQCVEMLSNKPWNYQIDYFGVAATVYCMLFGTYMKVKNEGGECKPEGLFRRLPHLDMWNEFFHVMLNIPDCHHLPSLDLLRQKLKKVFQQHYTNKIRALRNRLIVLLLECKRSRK
T10 sequence (Q96GD4 whole entry): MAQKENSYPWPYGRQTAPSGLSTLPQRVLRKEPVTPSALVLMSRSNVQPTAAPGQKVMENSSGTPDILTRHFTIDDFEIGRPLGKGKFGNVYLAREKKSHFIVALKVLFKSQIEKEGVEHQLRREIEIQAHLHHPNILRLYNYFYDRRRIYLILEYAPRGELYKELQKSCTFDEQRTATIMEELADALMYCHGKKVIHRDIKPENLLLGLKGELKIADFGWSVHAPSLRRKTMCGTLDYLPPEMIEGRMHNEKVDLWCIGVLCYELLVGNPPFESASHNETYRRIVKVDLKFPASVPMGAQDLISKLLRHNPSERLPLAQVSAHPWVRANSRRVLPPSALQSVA
T7 sequence (Q8N4C8 whole entry): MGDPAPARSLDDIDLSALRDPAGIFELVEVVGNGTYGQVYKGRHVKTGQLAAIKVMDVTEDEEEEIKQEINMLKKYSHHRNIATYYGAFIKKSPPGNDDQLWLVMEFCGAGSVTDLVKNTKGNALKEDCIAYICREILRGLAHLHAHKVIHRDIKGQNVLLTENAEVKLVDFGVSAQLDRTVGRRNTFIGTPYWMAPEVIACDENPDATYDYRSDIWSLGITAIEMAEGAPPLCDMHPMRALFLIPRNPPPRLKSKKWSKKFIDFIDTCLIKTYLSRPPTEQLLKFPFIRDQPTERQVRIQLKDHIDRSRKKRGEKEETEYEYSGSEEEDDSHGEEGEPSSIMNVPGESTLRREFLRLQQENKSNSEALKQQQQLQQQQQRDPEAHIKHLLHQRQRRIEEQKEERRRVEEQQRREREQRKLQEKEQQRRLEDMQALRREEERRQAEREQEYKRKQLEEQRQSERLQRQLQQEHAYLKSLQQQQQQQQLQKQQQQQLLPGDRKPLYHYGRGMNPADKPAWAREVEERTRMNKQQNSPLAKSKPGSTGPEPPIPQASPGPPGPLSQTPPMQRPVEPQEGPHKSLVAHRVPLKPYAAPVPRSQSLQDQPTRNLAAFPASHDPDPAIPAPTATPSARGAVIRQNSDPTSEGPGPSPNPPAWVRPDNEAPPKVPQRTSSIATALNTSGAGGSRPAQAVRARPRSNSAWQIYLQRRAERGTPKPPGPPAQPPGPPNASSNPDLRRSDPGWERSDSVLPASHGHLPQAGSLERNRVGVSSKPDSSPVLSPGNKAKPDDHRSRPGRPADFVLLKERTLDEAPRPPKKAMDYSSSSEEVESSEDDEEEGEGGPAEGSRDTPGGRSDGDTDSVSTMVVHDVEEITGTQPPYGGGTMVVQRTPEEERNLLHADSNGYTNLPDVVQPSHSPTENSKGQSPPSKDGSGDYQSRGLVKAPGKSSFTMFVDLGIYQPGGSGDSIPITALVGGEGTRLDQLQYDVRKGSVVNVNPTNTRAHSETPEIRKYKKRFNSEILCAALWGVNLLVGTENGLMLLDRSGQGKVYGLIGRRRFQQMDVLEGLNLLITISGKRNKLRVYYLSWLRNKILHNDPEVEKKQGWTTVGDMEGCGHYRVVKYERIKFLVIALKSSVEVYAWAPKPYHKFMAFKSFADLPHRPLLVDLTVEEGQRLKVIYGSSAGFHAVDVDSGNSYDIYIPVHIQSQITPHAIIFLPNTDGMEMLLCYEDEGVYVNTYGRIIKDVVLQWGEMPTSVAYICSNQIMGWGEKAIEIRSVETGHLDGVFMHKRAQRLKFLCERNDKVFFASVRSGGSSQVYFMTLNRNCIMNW
T6 sequence (Q9NYL2 whole entry): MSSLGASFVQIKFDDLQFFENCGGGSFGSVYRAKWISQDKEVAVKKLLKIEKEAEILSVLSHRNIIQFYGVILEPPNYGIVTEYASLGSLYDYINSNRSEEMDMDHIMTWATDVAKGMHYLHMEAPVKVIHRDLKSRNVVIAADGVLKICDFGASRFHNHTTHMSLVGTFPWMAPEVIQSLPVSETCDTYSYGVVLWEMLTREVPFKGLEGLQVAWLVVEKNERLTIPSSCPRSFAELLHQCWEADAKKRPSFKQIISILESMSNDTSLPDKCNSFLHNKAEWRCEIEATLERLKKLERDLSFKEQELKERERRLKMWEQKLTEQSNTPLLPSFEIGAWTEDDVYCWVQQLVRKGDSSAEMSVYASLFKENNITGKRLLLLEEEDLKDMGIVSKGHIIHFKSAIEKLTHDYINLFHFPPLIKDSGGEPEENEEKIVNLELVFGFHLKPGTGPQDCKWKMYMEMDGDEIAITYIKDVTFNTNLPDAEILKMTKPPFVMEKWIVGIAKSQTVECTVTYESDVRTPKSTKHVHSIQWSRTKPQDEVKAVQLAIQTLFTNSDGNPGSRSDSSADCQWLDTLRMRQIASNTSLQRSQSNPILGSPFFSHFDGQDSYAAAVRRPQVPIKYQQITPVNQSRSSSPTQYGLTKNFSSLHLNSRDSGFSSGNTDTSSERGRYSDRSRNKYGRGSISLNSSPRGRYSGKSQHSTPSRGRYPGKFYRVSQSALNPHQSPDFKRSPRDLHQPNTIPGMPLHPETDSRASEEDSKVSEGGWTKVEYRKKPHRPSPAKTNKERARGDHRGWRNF
T5 sequence (Q9BVS4 whole entry): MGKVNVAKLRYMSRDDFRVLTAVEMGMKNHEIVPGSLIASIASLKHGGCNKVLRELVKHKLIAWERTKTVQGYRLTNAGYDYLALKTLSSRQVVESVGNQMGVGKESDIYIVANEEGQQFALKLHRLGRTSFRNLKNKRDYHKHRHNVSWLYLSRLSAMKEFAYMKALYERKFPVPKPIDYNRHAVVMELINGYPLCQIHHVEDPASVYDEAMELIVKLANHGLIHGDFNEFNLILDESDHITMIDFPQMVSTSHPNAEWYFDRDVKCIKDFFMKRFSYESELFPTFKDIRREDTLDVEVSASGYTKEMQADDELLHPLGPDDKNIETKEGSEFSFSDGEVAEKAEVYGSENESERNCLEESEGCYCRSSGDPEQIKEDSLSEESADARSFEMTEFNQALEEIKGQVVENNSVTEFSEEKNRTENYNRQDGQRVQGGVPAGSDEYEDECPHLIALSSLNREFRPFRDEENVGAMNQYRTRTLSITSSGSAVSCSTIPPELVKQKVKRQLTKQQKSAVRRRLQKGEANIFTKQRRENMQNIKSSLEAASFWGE

N#CCc1ccc(Nc2nc(NCCCN)cc(Nc3cc(C4CC4)[nH]n3)n2)cc1 [KAM]
pIC50 (BUB1; [1]): < 5.00
0.001 uM KAM (BUB1; relative to 0 uM KAM = 0): -0.05097
0.01 uM KAM (BUB1; relative to 0 uM KAM = 0): -0.002823
0.1 uM KAM (BUB1; relative to 0 uM KAM = 0): -0.07998
1 uM KAM (BUB1; relative to 0 uM KAM = 0): -0.1399
10 uM KAM (BUB1; relative to 0 uM KAM = 0): -0.1894
median Log10 fold change (IRAK4; 0.001 uM KAM): -0.01083
median Log10 fold change (IRAK4; 0.01 uM KAM): -0.003774
median Log10 fold change (IRAK4; 0.1 uM KAM): -0.1174
median Log10 fold change (IRAK4; 1 uM KAM): -0.3495
median Log10 fold change (IRAK4; 10 uM KAM): -0.4574
pIC50 (IRAK4; [2]): 6.04
median Log10 fold change (CDK7; 0.001 uM KAM): -0.0273
median Log10 fold change (CDK7; 0.01 uM KAM): -0.01722
median Log10 fold change (CDK7; 0.1 uM KAM): -0.1187
median Log10 fold change (CDK7; 1 uM KAM): -0.275
median Log10 fold change (CDK7; 10 uM KAM): -0.3928
pIC50 (CDK7; [2]): 5.78
median Log10 fold change (TGFBR1; 0.001 uM KAM): 0.003086
median Log10 fold change (TGFBR1; 0.01 uM KAM): -0.03819
median Log10 fold change (TGFBR1; 0.1 uM KAM): -0.2662
median Log10 fold change (TGFBR1; 1 uM KAM): -0.4673
median Log10 fold change (TGFBR1; 10 uM KAM): -0.5096
pIC50 (TGFBR1; [2]): 6.69
median Log10 fold change (RIOK2; 0.001 uM KAM): -0.01457
median Log10 fold change (RIOK2; 0.01 uM KAM): -0.03291
median Log10 fold change (RIOK2; 0.1 uM KAM): -0.138
median Log10 fold change (RIOK2; 1 uM KAM): -0.3574
median Log10 fold change (RIOK2; 10 uM KAM): -0.5027
pIC50 (RIOK2; [2]): 6.11
median Log10 fold change (ZAK; 0.001 uM KAM): -0.0362
median Log10 fold change (ZAK; 0.01 uM KAM): -0.03172
median Log10 fold change (ZAK; 0.1 uM KAM): -0.2036
median Log10 fold change (ZAK; 1 uM KAM): -0.2767
median Log10 fold change (ZAK; 10 uM KAM): -0.5362
pIC50 (ZAK; [2]): 6.00
median Log10 fold change (MINK1; 0.001 uM KAM): -0.05922
median Log10 fold change (MINK1; 0.01 uM KAM): -0.00678
median Log10 fold change (MINK1; 0.1 uM KAM): -0.2189
median Log10 fold change (MINK1; 1 uM KAM): -0.4489
median Log10 fold change (MINK1; 10 uM KAM): -0.4879
pIC50 (MINK1; [2]): 6.48
pIC50 (BRD4; [1]): < 5.00
0.001 uM KAM (BRD4; relative to 0 uM KAM = 0): -0.02698
0.01 uM KAM (BRD4; relative to 0 uM KAM = 0): 0.00122
0.1 uM KAM (BRD4; relative to 0 uM KAM = 0): 0.04808
1 uM KAM (BRD4; relative to 0 uM KAM = 0): 0.01224
10 uM KAM (BRD4; relative to 0 uM KAM = 0): -0.001488
median Log10 fold change (PRKCA; 0.001 uM KAM): -0.02328
median Log10 fold change (PRKCA; 0.01 uM KAM): -0.03535
median Log10 fold change (PRKCA; 0.1 uM KAM): -0.1377
median Log10 fold change (PRKCA; 1 uM KAM): -0.1636
median Log10 fold change (PRKCA; 10 uM KAM): -0.4501
pIC50 (PRKCA; [2]): 5.50
median Log10 fold change (AURKB; 0.001 uM KAM): 0.001732
median Log10 fold change (AURKB; 0.01 uM KAM): -0.09106
median Log10 fold change (AURKB; 0.1 uM KAM): -0.3265
median Log10 fold change (AURKB; 1 uM KAM): -0.4096
median Log10 fold change (AURKB; 10 uM KAM): -0.3913
pIC50 (AURKB; [2]): 6.86
pIC50 (ROCK2; [1]): < 5.00
0.001 uM KAM (ROCK2; relative to 0 uM KAM = 0): 0.005547
0.01 uM KAM (ROCK2; relative to 0 uM KAM = 0): 0.004918
0.1 uM KAM (ROCK2; relative to 0 uM KAM = 0): -0.08686
1 uM KAM (ROCK2; relative to 0 uM KAM = 0): -0.1587
10 uM KAM (ROCK2; relative to 0 uM KAM = 0): -0.127
median Log10 fold change (FGFR3; 0.001 uM KAM): 0.01443
median Log10 fold change (FGFR3; 0.01 uM KAM): 0.001015
median Log10 fold change (FGFR3; 0.1 uM KAM): -0.1738
median Log10 fold change (FGFR3; 1 uM KAM): -0.319
median Log10 fold change (FGFR3; 10 uM KAM): -0.3424
pIC50 (FGFR3; [2]): 5.93
